Data from US20230373974A1, “MODULATORS OF CYSTIC FIBROSIS TRANSMEMBRANE CONDUCTANCE REGULATOR” (VERTEX PHARMACEUTICALS INCORPORATED, priority 2020, published 2023).
pEC50: −log10 of the molar value.

Biological target: T1, F508del in NIH 3T3 cells (Homo sapiens, UniProt P13569, DEL508-508)
T1 construct: expressed in transfected cells
Experiment: 3T3 assay: membrane potential optical assay for F508del correction
Type: cell-based, mouse
Settings: F508del NIH 3T3 cells; for Emax: NIH3T3, efficacy compared to lumacaftor in combination with acutely added 300 nM Ivacaftor, read-out: 3T3 Max Activity (%); for pEC50: incubated with compound 18-24 hours at 37° C., forskolin activation
Description: Membrane Potential Optical Methods for Assaying F508del Modulation Properties of Compounds The assay utilizes fluorescent voltage sensing dyes to measure changes in membrane potential using a fluorescent plate reader (e.g., FLIPR III, Molecular Devices, Inc.) as a readout for increase in functional F508del in NIH 3T3 cells. The driving force for the response is the creation of a chloride ion gradient in conjunction with channel activation by a single liquid addition step after the cells have previously been treated with compounds and subsequently loaded with a voltage sensing dye. 2. Identification of Corrector Compounds To identify correctors of F508del, a single-addition HTS assay format was developed. This HTS assay utilizes fluorescent voltage sensing dyes to measure changes in membrane potential on the FLIPR III as a measurement for increase in gating (conductance) of F508del in F508del NIH 3T3 cells. The F508del NIH 3T3 cell cultures were incubated with the corrector compounds at a range of concentrations for 18-24 hours at 37° C., and subsequently loaded with a redistribution dye. The driving force for the response is a Cl^− ion gradient in conjunction with channel activation with forskolin in a single liquid addition step using a fluorescent plate reader such as FLIPR III. […] Solutions […] Chloride-free bath solution: Chloride salts in Bath Solution #1 (above) are substituted with gluconate salts. 4. Cell Culture NIH3T3 mouse fibroblasts stably expressing F508del are used for optical measurements of membrane potential. The cells are maintained at 37° C. in 5% CO2 and 90% humidity in Dulbecco's modified Eagle's medium supplemented with 2 mM glutamine, 10% fetal bovine serum, 1×NEAA, b-ME, 1×pen/strep, and 25 mM HEPES in 175 cm^2 culture flasks. For all optical assays, the cells were seeded at ˜20,000/well in 384-well Matrigel-coated plates. For the correction assays, the cells are cultured at 37° C. with and without compounds for 16-24 hours.

T1 sequence (P13569 with tags, fused parts or gaps DEL508-508): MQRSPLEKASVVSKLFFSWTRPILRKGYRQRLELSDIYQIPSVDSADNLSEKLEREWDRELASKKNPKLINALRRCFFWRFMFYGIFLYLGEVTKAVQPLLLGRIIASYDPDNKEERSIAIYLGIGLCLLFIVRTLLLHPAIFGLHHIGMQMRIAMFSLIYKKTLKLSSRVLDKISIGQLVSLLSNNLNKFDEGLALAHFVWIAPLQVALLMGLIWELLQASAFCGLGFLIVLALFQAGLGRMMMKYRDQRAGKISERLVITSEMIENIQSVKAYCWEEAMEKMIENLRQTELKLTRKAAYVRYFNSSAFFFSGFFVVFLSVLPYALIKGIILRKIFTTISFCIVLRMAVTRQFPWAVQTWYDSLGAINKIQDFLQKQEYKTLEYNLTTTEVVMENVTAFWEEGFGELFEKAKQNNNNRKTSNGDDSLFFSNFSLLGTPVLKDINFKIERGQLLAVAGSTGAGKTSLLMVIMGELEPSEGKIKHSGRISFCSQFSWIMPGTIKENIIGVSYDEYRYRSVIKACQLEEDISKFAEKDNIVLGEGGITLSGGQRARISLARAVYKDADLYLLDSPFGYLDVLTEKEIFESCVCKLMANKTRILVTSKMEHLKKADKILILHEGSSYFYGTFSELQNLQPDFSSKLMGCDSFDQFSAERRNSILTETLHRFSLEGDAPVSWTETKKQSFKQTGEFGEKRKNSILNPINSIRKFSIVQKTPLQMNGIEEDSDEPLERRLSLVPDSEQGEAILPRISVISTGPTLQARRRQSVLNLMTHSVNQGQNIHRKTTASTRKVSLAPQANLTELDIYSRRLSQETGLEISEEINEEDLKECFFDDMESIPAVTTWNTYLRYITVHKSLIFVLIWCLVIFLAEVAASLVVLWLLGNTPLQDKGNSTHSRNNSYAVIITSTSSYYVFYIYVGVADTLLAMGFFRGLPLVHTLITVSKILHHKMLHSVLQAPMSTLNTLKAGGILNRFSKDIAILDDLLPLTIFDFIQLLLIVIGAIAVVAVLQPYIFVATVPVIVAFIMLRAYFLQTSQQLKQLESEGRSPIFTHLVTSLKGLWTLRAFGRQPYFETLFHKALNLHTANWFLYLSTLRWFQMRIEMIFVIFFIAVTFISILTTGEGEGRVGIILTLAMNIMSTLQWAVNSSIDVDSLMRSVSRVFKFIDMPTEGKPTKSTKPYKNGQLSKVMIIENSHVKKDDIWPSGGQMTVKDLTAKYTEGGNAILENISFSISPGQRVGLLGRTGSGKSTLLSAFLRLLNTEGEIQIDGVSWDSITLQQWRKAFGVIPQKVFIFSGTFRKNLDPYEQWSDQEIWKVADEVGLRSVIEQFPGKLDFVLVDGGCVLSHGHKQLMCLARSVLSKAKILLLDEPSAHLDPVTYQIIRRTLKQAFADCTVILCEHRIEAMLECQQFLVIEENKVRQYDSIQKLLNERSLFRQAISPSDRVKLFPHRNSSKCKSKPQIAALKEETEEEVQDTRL

Row | Compound | Emax [%] | pEC50
1 | Cc1cc(C)c(-n2nc(NS(=O)(=O)c3ccc(Cl)cc3)c3ccc(C(C)(C)C)nc32)c(C)c1 [Compound 65] | < 30 | –
2 | COc1ccc(OC)c(S(=O)(=O)Nc2nn(-c3c(C)cc(C)cc3C)c3nc(C(C)(C)C)ccc23)c1 [Compound 58] | 30 to 60 | > 6.00
3 | CC(C)(C)C1CCc2nc(NS(=O)(=O)c3ccccc3)sc2C1 (stereo not drawn) [Compound 25] | 30 to 60 | 5.52 to 6.00
4 | COc1ccc(N)cc1S(=O)(=O)Nc1nn(-c2c(C)cc(C)cc2C)c2nc(C(C)(C)C)ccc12 [Compound 55] | 30 to 60 | 4.52 to 5.52
5 | Cc1cc(C)c(Oc2nc(NS(=O)(=O)c3ccccc3)c3ccc(C(C)(C)C)nc3n2)c(C)c1 [Compound 19] | < 30 | –
6 | Cc1cccc(C)c1-c1nc(NS(=O)(=O)c2ccccc2)nc2c1CCCC2(C)c1ccccc1 (stereo not drawn) [Compound 76, N-[4-(2,6-Dimethylphenyl)-8-methyl-8-phenyl-6,7-dihydro-5H-quinazolin-2-yl]benzenesulfonamide] | > 60 | > 6.00
7 | CC(C)(O)C1CCc2nc(NS(=O)(=O)c3ccccc3)sc2C1 (stereo not drawn) [Compound 21] | < 30 | –
8 | C=C(C)c1ccc2c(NS(=O)(=O)c3ccccc3)nn(-c3ccccc3C)c2c1 [Compound 72, N-[6-isopropenyl-1-(o-tolyl)indazol-3-yl]benzenesulfonamide] | > 60 | 5.52 to 6.00
9 | Cc1cc(C)c(-n2nc(NS(=O)(=O)c3ccccc3C)c3ccc(C(C)(C)C)nc32)c(C)c1 [Compound 69] | < 30 | –
10 | Cc1cc(C)c(-n2nc(NS(=O)(=O)c3cccc(N)n3)c3ccc(C(C)(C)C)nc32)c(C)c1 [Compound 42] | 30 to 60 | 5.52 to 6.00
11 | Cc1cc(C)cc(-n2nc(NS(=O)(=O)c3ccccc3)c3cc(C(C)C)cnc32)c1 [Compound 46] | 30 to 60 | > 6.00
12 | COc1cccc(OC)c1S(=O)(=O)Nc1nn(-c2c(C)cc(C)cc2C)c2nc(C(C)(C)C)ccc12 [Compound 54] | < 30 | –
13 | Cc1ccccc1Oc1nc2ccccc2nc1NS(=O)(=O)c1ccccc1 [Compound 15] | 30 to 60 | 4.52 to 5.52
14 | Cc1ccccc1Oc1nc(NS(=O)(=O)c2cnn(C)c2)nc2c1CCc1ccccc1-2 [Compound 7] | > 60 | > 6.00
15 | Cc1cc(C)c(Oc2cc(C(C)(C)C)cc3nnc(NS(=O)(=O)c4cccc(N)c4)n23)c(C)c1 [Compound 94] | < 30 | –
16 | Cc1ccc(-n2ncc3c2CC(C)(C)CC3NS(=O)(=O)c2ccccc2)cc1 (stereo not drawn) [Compound 83] | < 30 | –
17 | Cc1ccccc1-n1nc(NS(=O)(=O)c2ccccc2)c2ccc(C(C)(C)C)nc21 [Compound 45] | 30 to 60 | > 6.00
18 | CC(C)n1nc(NS(=O)(=O)c2ccccc2)c2ccc(C(C)(C)C)nc21 [Compound 39, N-(6-tert-butyl-1-isopropyl-pyrazolo[3,4-b]pyridin-3-yl)benzenesulfonamide] | – | 5.52 to 6.00
19 | C=C(C)c1cnc2c(c1)c(NS(=O)(=O)c1ccccc1)nn2-c1cc(C)cc(C)c1 [Compound 47] | 30 to 60 | > 6.00
20 | Cc1cc(C)c(-n2nc(NS(=O)(=O)c3ccccc3N)c3ccc(C(C)(C)C)nc32)c(C)c1 [Compound 67] | < 30 | –
21 | O=S(=O)(Nc1nc(Oc2ccccc2)nc2ccccc12)c1ccccc1 [Compound 16] | < 30 | –
22 | Cc1cc(C)cc(-n2nc(NS(=O)(=O)c3ccccc3)c3cc(Br)cnc32)c1 [Compound 48] | 30 to 60 | > 6.00
23 | COc1cc(OC)cc(S(=O)(=O)Nc2nn(-c3c(C)cc(C)cc3C)c3nc(C(C)(C)C)ccc23)c1 [Compound 57] | < 30 | –
24 | Cc1ccccc1Oc1nc(NS(=O)(=O)c2cnn(C)c2)nc2c1C(C)(C)CCC2 [Compound 1, N-[5,5-dimethyl-4-(2-methylphenoxy)-7,8-dihydro-6H-quinazolin-2-yl]-1-methyl-pyrazole-4-sulfonamide] | > 60 | 5.52 to 6.00
25 | Cc1ccc(Oc2nc3ccccc3nc2NS(=O)(=O)c2ccccc2)c(C)c1 [Compound 14] | 30 to 60 | 5.52 to 6.00
